Measurements reported in publication PMC2099433, “The binding site for neohesperidin dihydrochalcone at the human sweet taste receptor” (BMC Structural Biology, 2007).
Numbering of substitutions follows the chain as printed. Where two headings read alike, the source gives them in different places. Where a SMILES comes first, the peptide text is derived from it.

What was measured:
[1] = molecular target: T1, hTAS1R2 + hTAS1R3 Q637E^3.29 (Homo sapiens, UniProt Q7RTX0+Q8TE23, Q637E); test: Calcium response (FLIPR), hTAS1R3 mutant coexpressed with hTAS1R2; type: cell-based; conditions: variant Q637E^3.29; for Emax: read-out: maximal signal (% of wt)
T1 construct: expressed in transfected cells; host or cells: HEK293T cells stably expressing G16Gust44
T1 sequence (Q8TE23 20-839): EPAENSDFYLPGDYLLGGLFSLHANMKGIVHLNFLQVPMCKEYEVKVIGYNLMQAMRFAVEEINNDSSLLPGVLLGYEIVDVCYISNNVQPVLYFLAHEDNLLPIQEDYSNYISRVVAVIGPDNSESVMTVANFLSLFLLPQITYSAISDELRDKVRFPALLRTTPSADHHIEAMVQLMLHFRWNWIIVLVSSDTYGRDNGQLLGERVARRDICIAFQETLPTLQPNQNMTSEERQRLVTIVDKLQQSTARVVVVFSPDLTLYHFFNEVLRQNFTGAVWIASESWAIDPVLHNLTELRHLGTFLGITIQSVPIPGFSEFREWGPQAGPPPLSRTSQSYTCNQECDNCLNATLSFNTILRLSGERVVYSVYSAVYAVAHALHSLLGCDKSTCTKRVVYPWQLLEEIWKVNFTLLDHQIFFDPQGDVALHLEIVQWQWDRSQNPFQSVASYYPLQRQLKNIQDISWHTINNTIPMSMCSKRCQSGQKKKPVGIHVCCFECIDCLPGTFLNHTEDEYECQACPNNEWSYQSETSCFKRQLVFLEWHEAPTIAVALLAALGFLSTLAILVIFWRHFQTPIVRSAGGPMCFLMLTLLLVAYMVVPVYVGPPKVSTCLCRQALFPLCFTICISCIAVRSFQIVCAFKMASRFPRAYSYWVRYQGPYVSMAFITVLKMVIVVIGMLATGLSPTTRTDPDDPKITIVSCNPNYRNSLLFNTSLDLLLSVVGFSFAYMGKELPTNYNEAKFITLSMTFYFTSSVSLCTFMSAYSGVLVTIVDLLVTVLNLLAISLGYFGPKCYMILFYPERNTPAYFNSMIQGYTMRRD
T1 sequence (Q7RTX0 21-852 Q637E): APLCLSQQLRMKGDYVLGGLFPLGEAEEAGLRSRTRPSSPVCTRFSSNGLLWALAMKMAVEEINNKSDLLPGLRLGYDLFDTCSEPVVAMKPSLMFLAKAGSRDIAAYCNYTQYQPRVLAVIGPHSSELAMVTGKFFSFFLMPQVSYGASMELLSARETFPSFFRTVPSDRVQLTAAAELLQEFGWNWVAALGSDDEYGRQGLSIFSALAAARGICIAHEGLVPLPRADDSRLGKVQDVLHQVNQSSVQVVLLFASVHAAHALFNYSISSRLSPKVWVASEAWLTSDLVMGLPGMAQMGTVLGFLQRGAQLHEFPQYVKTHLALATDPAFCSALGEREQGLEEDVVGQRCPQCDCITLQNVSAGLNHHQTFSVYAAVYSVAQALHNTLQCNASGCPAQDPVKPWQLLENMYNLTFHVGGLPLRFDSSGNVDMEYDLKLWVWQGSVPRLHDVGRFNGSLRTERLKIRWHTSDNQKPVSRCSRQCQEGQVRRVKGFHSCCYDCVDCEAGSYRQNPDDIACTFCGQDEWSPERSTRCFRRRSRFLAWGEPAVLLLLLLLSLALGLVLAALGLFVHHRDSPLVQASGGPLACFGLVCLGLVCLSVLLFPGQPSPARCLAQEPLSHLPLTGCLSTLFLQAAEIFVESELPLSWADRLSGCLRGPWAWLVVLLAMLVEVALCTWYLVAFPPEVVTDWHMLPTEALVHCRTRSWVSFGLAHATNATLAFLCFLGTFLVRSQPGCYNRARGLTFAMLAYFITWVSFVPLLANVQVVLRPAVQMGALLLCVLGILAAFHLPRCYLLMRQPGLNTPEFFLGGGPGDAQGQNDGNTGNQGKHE
Summary of the method: (§1)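 Each mutant receptor pair was expressed transiently in G16Gust44-expressing HEK293T cells; stimuli dissolved in C1 solution triggered calcium responses, recorded by fluorometric imaging and scaled to baseline fluorescence (ΔF/F) after mock correction, from at least three experiments run in duplicate.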

[2] = molecular target: T2, hTAS1R2 + hTAS1R3 G804V^7.42 (Homo sapiens, UniProt Q7RTX0+Q8TE23, G804V); test: as above; type: cell-based; conditions: for EC50: n.r. = no response to NHDC up to highest tested concentration (6 mM), but responses to other sweeteners
T2 construct: expressed in transfected cells; host or cells: HEK293T cells stably expressing G16Gust44
T2 sequence (Q7RTX0 21-852 G804V): T1 sequence (Q7RTX0 21-852 Q637E) with E617Q, G784V
T2 sequence (Q8TE23 20-839): T1 sequence (Q8TE23 20-839)
Summary of the method: as §1

| EC50 [1] | Emax [1] | EC50 ([2]; variant G804V^7.42, read-out: EC50) | Emax ([2]; variant G804V^7.42, read-out: maximal signal (% of wt)) | EC50 ([2]; variant G804V^7.42) | Compound | receptor response ([2]; mutant G804V^7.42, any tested concentration) |
| --- | --- | --- | --- | --- | --- | --- |
| 1700 ± 200 µM | 51 ± 10% | 1300 ± 300 µM | 21 ± 2% |  | COC(=O)[C@H](Cc1ccccc1)NC(=O)[C@@H](N)CC(=O)O [aspartame] (HELM PEPTIDE1{D.F.[CO[*:1]]}$$$$V2.0) |  |
| 1500 ± 400 µM | 51 ± 13% |  |  | n.r. | COc1ccc(CCC(=O)c2c(O)cc(O[C@@H]3O[C@H](CO)[C@@H](O)[C@H](O)[C@H]3O[C@@H]3O[C@@H](C)[C@H](O)[C@@H](O)[C@H]3O)cc2O)cc1O [NHDC, neohesperidin dihydrochalcone] | did not respond to NHDC at any tested concentration |
